Data taken from US20100222285A1, “METHOD OF CONTROLLING THE PROLIFERATION OF VASCULAR ENDOTHELIAL CELLS AND INHIBITING LUMEN FORMATION” (Rare Sugar Production Technical Research Laboratories, LLC, priority 2004, published 2010).
“Also recorded” adds a separate entry of the source.

Columns and labels:
[1] = system: Human umbilical cord vascular endothelial cells (HUVEC); assay: Experiment of growth: HUVEC cell number by WST-8 after 48 hrs; assay type: cell-based; settings: for antagonism of the growth inhibitory effect by D-glucose: co-existence of 20 mM D-glucose; for inhibition at 20000 µM: 20 mM, read-out: inhibition of growth to the control group
Experimental: Human umbilical cord vascular endothelial cells (HUVEC) were purchased as primary cultured cells from KURABO (Kurabo Co., Osaka, Japan) and the cells up to P8 were used in experiments. The cells were inoculated on a 96-well plate at a rate of 3000 cells/well, and allowed to stand in Humedia EG2 (Kurabo) overnight (37° C., 5% CO2). Next morning, the medium was replaced by 90 μl of 2% FBS-containing Humedia EB2 (Kurabo), to which was then added 10 μl of additive, and after a lapse of 48 hrs the number of cells was counted. No medium was exchanged during this period. In counting, a tetrazolium salt WST-8 was added to each well (0.5 mM), and after 2 hrs the absorbance was measured at 450 nm. The tetrazolium salt added was reduced with an intracellular dehydrogenase to yield formazan depending on the number of cells in the well. In advance, the absorbance at 450 nm was confirmed to show a linearity within the range of 500 to 12000 cells in the well.

HUVEC = assay: 14C-glucose up-take in vascular endothelial cell; assay type: cell-based, human; settings: sugars 20 mM (2 mM for 2DG), 48 hours; for effect on the glucose up-take of HUVEC: both culture media ([GLU]=0.1 mM and 4.5 mM), VEGF 10 ng/mL; for effect on the glucose up-take accelerated by VEGF: with VEGF 10 ng/mL
Experimental: Most of the physiological actions of monosaccharides are likely to be caused by the structural similarity to D-glucose, and one of the mechanisms is considered to be an influence on glucose metabolism. Then, in order to elucidate the influence on metabolism, the effect of HUVEC on the glucose up-take was examined for FRU, ALO, PSI, ALL, 2DG, MAN, and GAL. ^14C-Glucose was added to a culture medium, and the incorporated amount after 48 hours was counted by a scintillation counter. HUVEC was inoculated on a 24-well plate at a rate of 12000 cells/well. The medium was allowed to stand in 400 μL of Humedia EB2+2% FBS overnight. Next day, the medium was replaced by a medium containing ^14C-glucose. The medium used in replacement was the total 400 μL/well of medium containing ^14C-glucose (360 μL)+saline/VEGF (20 μL)+saline/RS (20 μL). The stock solution of ^14C-glucose 100 Bq/μL saline was diluted 10-fold with 2% FBS-containing medium (glucose-free or low glucose) to give a culture medium of 10 Bq/μL. The experiment was carried out on a lower glucose medium (final concentration [GLU]=0.1 mM) and on a high glucose medium ([GLU]=4.5 mM). ^14C-glucose was added at 3600 Bq/well. Further, FRU: D-fructose, ALO: D-allose, PSI: D-psicose, ALL: allitol, 2DG: 2-deoxy glucose, MAN: D-mannose, or GAL: D-galactose was added to the medium as an additive at 20 mM (provided 2 mM for 2DC). Irritation for growth was also carried out with VEGF (10 ng/mL). After a lapse of 48 hours, the well was washed twice with PBS, to which was then added 200 μL of 2% Triton, of which 180 μL was used as a sample for scintillation counter. The incorporation of ^14C-glucose into the HUVEC cells was calculated from the count in each well in the unit of nmol/well and depicted in a graph.

[2] = system: human endothelial cells and fibroblasts; assay: Experiment of luminal formation: concurrent culture, CD31 staining, area of the lumen; assay type: cell-based; settings: for effect on the luminal formation: Example 1, 0.1-20 mM; for effect on the luminal formation of HUVEC: Example 2 (36 species), incubation for 10 days; for antagonism of the luminal formation inhibitory effect by D-glucose: co-existence of 20 mM D-glucose; for inhibition of the acceleration of luminal formation by VEGF: with VEGF
Experimental: Using a concurrent culture system of human endothelial cells and fibroblasts planted on a 24-well plate (Kurabo Co., Osaka, Japan), the culture medium was replaced by culture media containing a variety of additives at the early stage of luminal formation. Every 3 days, the medium was exchanged with the additive; 10 day after incubation, the endothelial cell only was stained by using mouse anti-human CD31 antibody (Kurabo Co., Osaka, Japan), goat anti-mouse IgG AlkP Conjugate (Kurabo Co., Osaka, Japan), and BCPI (5-bromo-4-chloro-3-indolyl phosphate) (Kurabo Co., Osaka, Japan) to photograph. The visualized area of the lumen was measured by means of NIH image software.

[3] = Basic safety tests (mutagenicity, biodegradable test, 3 acute toxicity tests); settings: oral acute toxicity, skin and ophthalmic primary irritation, by a designated organ
Source text: The most important and highest hurdle in the development of approved drugs/quasi drugs or foods is to confirm safety of the rare sugar as a new substance. As the most basic safety tests, mutagenicity, biodegradable test and 3 acute toxicity tests (oral acute toxicity test, skin primary irritation test, ophthalmic primary irritation test) are decided. Since rare sugars are monosaccharides naturally occurring in very small quantities, it is necessary to examine exactly, though they are expected to be safe. We requested of a designated organ to examine the basic safety test on 3 species of rare sugars, i.e., D-psicose, D-allose and allitol. As a result, it was confirmed that there was no problem in any of the rare sugars.

[4] = Example 2 (36 species), 48 hours

Row | Molecule | effect on the glucose up-take of HUVEC (HUVEC) | result of the basic safety test [3] | effect on the growth of HUVEC ([1]; Example 1, 0.1-20 mM, 48 hrs) | effect on the growth of HUVEC [1, 4] | antagonism of the growth inhibitory effect by D-glucose [1] | effect on the glucose up-take accelerated by VEGF (HUVEC) | effect on the luminal formation ([2]; 10 days) | effect on the luminal formation of HUVEC [2] | antagonism of the luminal formation inhibitory effect by D-glucose [2] | inhibition of the acceleration of luminal formation by VEGF [2] | inhibition at 20000 µM ([1]; Homo sapiens, HUVEC, 48 hrs) | further results
1 | VEGF | accelerated |  |  |  |  |  |  |  |  |  |  | cell number in comparison with the control group ([1]; 10 ng/mL, 48 hrs): 1.7±0.5 times; luminal area in comparison to the control group ([2]; 10 ng/mL, 10 days): 2.8±0.6 times
2 | OC[C@@H](O)[C@@H](O)[C@@H](O)[C@@H](O)CO [allitol] |  | no problem |  |  |  |  |  |  |  |  |  | 
3 | O=CC[C@@H](O)[C@H](O)[C@H](O)CO [2DG, 2-deoxy-D-glucose] | inhibitory effect |  | effect was confirmed | inhibitory effect was observed; also recorded: particularly strong action | no antagonism | inhibited | effect was confirmed | inhibitory effect was observed; also recorded: much stronger action | antagonized | inhibit the acceleration by VEGF |  | effect on the growth of HUVEC ([1]; Example 1, 0.1-20 mM, 48 hrs, listed as 2-deoxy-D-glucose): inhibit both; inhibition at 1000 µM ([1]; Homo sapiens, HUVEC, 1 mM, 48 hrs): 70%; effect on the luminal formation ([2]; 10 days, listed as 2-deoxy-D-glucose): inhibit both; inhibition at 100 µM ([2]; Homo sapiens, 0.1 mM): 70%; inhibition at 500 µM ([2]; Homo sapiens, 0.5 mM): 95%
4 | O=C(CO)[C@H](O)[C@H](O)[C@H](O)CO [PSI, D-psicose] |  | no problem |  | no remarkable effect |  |  |  |  |  |  |  | 
5 | O=C[C@@H](O)[C@@H](O)[C@H](O)[C@H](O)CO [MAN, D-mannose] | inhibitory effect |  | effect was confirmed; also recorded: inhibitory effect for growth | inhibitory effect was observed | antagonized | inhibited | no influence |  |  |  | 40 to 80% | 
6 | O=C[C@H](O)[C@H](O)[C@H](O)[C@H](O)CO [A, D-allose] | inhibitory effect | no problem | effect was confirmed | inhibitory effect was observed | antagonized | inhibited | effect was confirmed | inhibitory effect was observed | no apparent effect | inhibit the acceleration by VEGF | 40 to 80% | inhibition at 20000 µM ([2]; Homo sapiens, 20 mM): 50 to 80%
